# Patent US6632793B1, “Immunological activity for a peptide of the limulus anti-LPS factor” (Centro de Ingenieria Genetica y Biotecnologia, priority 1997, dated 2003)
# Where a SMILES comes first, the peptide text is derived from it.
# Key:
# TNF-α in mouse serum = assay: Serum TNF after P. aeruginosa challenge in peptide-treated mice (ELISA); assay type: in vivo, mice BalB/c; conditions: 14 μg i.p. 20 h before P. aeruginosa; 0-240 min; FIG. 4
# Method: Groups of mice received LALF peptide (14 μg/0.1 ml) or saline control (0.1 ml) intraperitoneally 20 hours prior to infectious challenge. […] Blood was collected for TNF quantification from the retroorbital sinus at the time 0, 20, 40, 60, 90, 120, 180, 240 min in the control group and peptide treated-mice. The concentration of TNF-α in mouse serum was determined using a specific ELISA kindly provided by.
# Eight-week-old mice were injected i.p. with 14 μg of peptide in 0.1 ml saline or saline alone. Twenty hours after the mice were injected i.p. with a lethal doses of P. aeruginosa. At 0, 20, 40, 60, 90, 120, 180 and 240 min following the challenge, the mice were bled from the retroorbital sinus and the serum concentration of TNF was measured.
# [1] = In vivo toxicity after intravenous injection in mice (behavior, survival); set-up: species or system mice BalB/c
# Method: This approach was developed in mice BalB/c between 6-8 old. The mice were injected intravenously with 50 μg of peptide in 0.1 ml [2.5 mg/kg of body weight] or saline solution as a control. The behavior of animals was observed each 4 hours during 24 h. Survival was followed for one week. Blood was collected for TNF-α quantification from the retroorbital sinus at the time 0 h. 6 h, 24 h and 48 h in the control group and peptide treated-mice. The concentration of TNF-α in mouse serum was determined using a specific ELISA kindly provided by Dr. W. Buurman (University Hospital Maastrich, The Netherlands).
# [2] = tested on: cytokine mRNA in human PBMCs; assay: Cytokine gene expression in human PBMCs by Ribonuclease Protection Assay (hck-1 probe set); assay type: cell-based; conditions: 5 μM for 18 hours; FIG. 8
# Method: The Ribonuclease Protection Assay (RPA) is a highly sensitive and specific method for the detection, quantification and characterization of RNA molecules (Gilman^32, M. In Current Protocols in Molecular Biology. J. Wiley and Sons, New York, p. 4.7.1-7.7.8. 1988 and Dent^33, A. L., Shaffer, A. L., Yu […]., 1997. Cytokine expression and germinal center formation by Bcl-2. […] Samples of total RNA from stimulated and nonstimulated human PBMCs were analyzed for distinct mRNA species by PharMingen's RiboQuantTM. Multi-Probe Ribonuclease Protection Assay System with the hck-1 probe template set (Cat. No. 45031P) which including mRNA species analyses for a different cytokine eg. (IL-5, IL-4, IL-10, IL-15, IL-9, IL-2, IL-13, IFN-γ). […] The identity and quantity of each mRNA species in the original RNA sample can then be determined based on the signal intensities given by the appropriately sized of protected probe fragment bands. Unprotected probe set and a probe for housekeeping gene transcripts are incorporating in order to identify and quantify the RNA molecules in the original samples. […] FIG 8: Samples of total RNA from stimulated human PBMCs with 5 μM of peptide for 18 hours were analyzed for distinct mRNA species by using […] […]
compound,measurement,setting,value
CC[C@H](C)[C@H](NC(=O)[C@H](CCCNC(=N)N)NC(=O)[C@H](Cc1ccc(O)cc1)NC(=O)[C@H](Cc1c[nH]cn1)NC(=O)[C@@H](N)CS)C(=O)N[C@@H](CCCCN)C(=O)N1CCC[C@H]1C(=O)N[C@H](C(=O)N[C@@H](Cc1ccccc1)C(=O)N[C@@H](CCCNC(=N)N)C(=O)N[C@@H](CCCNC(=N)N)C(=O)N[C@@H](CC(C)C)C(=O)N[C@@H](CCCCN)C(=O)N[C@@H](Cc1c[nH]c2ccccc12)C(=O)N[C@@H](CCCCN)C(=O)N[C@@H](Cc1ccc(O)cc1)C(=O)N[C@@H](CCCCN)C(=O)NCC(=O)N[C@@H](CCCCN)C(=O)N[C@@H](Cc1ccccc1)C(=O)N[C@@H](Cc1c[nH]c2ccccc12)C(=O)N[C@@H](CS)C(=O)O)[C@@H](C)O [LALF] (H-CHYRIKPTFRRLKWKYKGKFWC-OH),Effect on systemic TNF after bacterial challenge (in words),TNF-α in mouse serum,induced a decrease of the proinflammatory cytokine TNF
same,Toxicity in vivo (in words),[1]; 50 μg [2.5 mg/kg] intravenously,not toxic in vivo
same,Survival after intravenous injection (in words),"[1]; 50 μg in 0.1 ml [2.5 mg/kg] intravenously, followed one week",All mice [10 animals/group] survivor beyond of one week
same,Cytokine gene expression in human PBMCs (in words),[2],"able to preferentially induce IFN-γ, IL-2 and IL-13 gene expression"
